The text below walks through data of patent US9908843B2, “Benzamide derivatives useful in the treatment of muscular disorders and pain and for controlling spasticity and tremors” (Canbex Therapeutics Limited, priority 2013, dated 2018).

Usually Emax stands for the maximal effect, on the per cent scale that the assay sets.

Test [1] deals with mouse vas deferens (CB1 knock-out). Description: VSN-16R dose response curve in mouse vas deferens, CB1 knock-out. Format: cell-based.
The subject of test [2] is mouse vas deferens. Description: Inhibition of electrically-evoked contractions of the mouse isolated vas deferens. Format: cell-based. Particulars: for potency (EC50) greater than VSN-16R: vas deferens mouse assay, relative to VSN-16R. Here is the method: Compounds were evaluated using a mouse vas deferens preparation [Ward S, Mastriani D, Casiano F and Arnold R (1990) J Pharmacol Exp Ther 255:1230-1239]. The mouse vas deferens isolated tissue preparation is used as an in vitro bioassay to assess the actions of compounds on neurotransmission. Electrically-evoked contractions are induced in the preparation and compounds which affect neurotransmission will inhibit these contractions in a concentration related manner. […] CB1 agonists inhibit electrically-evoked contractions.
Vasa deferentia were obtained from albino MF1 mice weighing 31-59 g. The tissues were mounted vertically in 4 ml organ baths. They were then subjected to electrical stimulation of progressively greater intensity, followed by an equilibration procedure in which they were exposed to alternate periods of stimulation (2 min) and rest (10 min) until contractions with consistent amplitudes were obtained. These contractions were monophasic and isometric, and were evoked by 0.5 s trains of pulses of 110% maximal voltage (train frequency 0.1 Hz; pulse frequency 5 Hz; pulse duration 0.5 ms).
All drug additions were made to the organ baths after the equilibration period and there was no washout between these additions. Potential antagonist or its vehicle were added to the preparation. This was followed 28 min later by a 2-min period of electrical stimulation, at the end of which the lowest of a series of concentrations of the twitch inhibitors was applied. After a period of rest, the tissues were electrically stimulated for 2 min and then subjected to a further addition of twitch inhibitor. This cycle of drug addition, rest and 2 min stimulation was repeated so as to construct cumulative concentration—response curves. Only one concentration—response curve was constructed per tissue.
Values for EC50, maximal effect (Emax) and the s.e.m. or 95% confidence limits of these values have been calculated by nonlinear regression analysis using the equation for a sigmoid concentration—response curve (GraphPad Prism).

Test [3] relates to mouse vas deferens (CB2 knock-out). Description: VSN-16R dose response curve in mouse vas deferens, CB2 knock-out. Format: cell-based.
Test [4] concerns spasticity in CREAE mice. Particulars: cited from earlier work.
Where [5] appears, read: Mus musculus, Table 2, read-out: EC50.
[6] abbreviates: Mus musculus, Table 2, read-out: Emax (%).

Structures are written as SMILES. Read-outs that look alike come from different tables or passages of the source. A value given as a limit tells only on which side of the number the result lay.

`C[C@H](CO)NC(=O)c1cccc(/C=C\CCCC(=O)N(C)C)c1` [VSN16R, reference compound]: the EC50 is 12.7 nM in test [1]; 10.4 nM in test [2] (Mus musculus, Table 1); 0.722 nM in test [2] (Mus musculus, Table 2); 10.5 nM in test [2] (Mus musculus, read-out: pEC50 ± SEM, Table 1 (converted)); 10.4 nM in test [2] (Mus musculus, wild type, FIG. 3); 17.6 nM in test [3]. Moreover, the Emax was 40.7% in test [2] (Mus musculus) and 56% in test [2] (Mus musculus, read-out: Emax (%) ± 95% confidence limits).

Turning to `CC(CO)NC(=O)c1cccc(/C=C\CCCC(=O)N(C)C)c1` (stereo not shown) [VSN16], the effect on spasticity entry in test [4] is reported as “marked effect on spasticity”.

As for `Cc1c(C(=O)c2cccc3ccccc23)c2cccc3c2n1[C@H](CN1CCOCC1)CO3` [WIN55212-2, reference compound], the “pEC50 ± SEM” value in test [2] (Table 1) is reported as 8.41 ± 0.237. Besides, the “Emax (%) ± 95% confidence limits” value in test [2] (Table 1, inhibition of electrically-evoked twitch response) is 62 (52-72) %. In test [2] (Table 1, read-out: EC50), the EC50 came out at 3.86 nM.

`C[C@@H](NC(=O)c1cccc(/C=C\CCCC(=O)N(C)C)c1)C(=O)O` [[1], (Z)-(3-(6-(dimethylamino)-6-oxohex-1-en-1-yl)benzoyl)-D-alanine]: the EC50 in test [2] (Mus musculus, Table 1, read-out: EC50) was 1.42 nM; in test [2] (Mus musculus, Table 1, read-out: pEC50 ± SEM (converted)), 1.41 nM; in test [2] (setting [5]) it was 0.00655 nM. In addition, the Emax was determined as 64% in test [2] (setting [6]) and 46% in test [2] (Mus musculus, Table 1, inhibition of electrically-evoked twitch response, read-out: Emax (%) ± 95% confidence limits). Besides, the “potency (EC50) greater than VSN-16R” value in test [2] is 10 fold; in test [2] (listed as VSN44), “ten-fold greater”; in test [2] (listed as VSN-44), no less than 10 fold.

On to `CN(C)C(=O)CCC/C=C\c1cccc(C(=O)N[C@H](CO)C(=O)O)c1` [[14], (R,Z)-2-(3-(6-(dimethylamino)-6-oxohex-1-en-1-yl)benzamido)-3-hydroxypropanoic acid], for which, in test [2] (setting [5]), the EC50 was 0.124 nM. In addition, the Emax in test [2] (setting [6]) was found to be 58.5%.

For the compound `CN(C)C(=O)CCC/C=C\c1cccc(C(=O)NCC(=O)O)c1` [[15], (Z)-2-(3-(6-(dimethylamino)-6-oxohex-1-en-1-yl)benzamido)acetic acid], the EC50 in test [2] (setting [5]) was 0.102 nM. In addition, the Emax in test [2] (setting [6]) is 53.7%.

For `CN(C)C(=O)CCC/C=C\c1cccc(C(=O)N[C@H](Cc2ccccc2)C(=O)O)c1` [[16], (R,Z)-2-(3-(6-(dimethylamino)-6-oxohex-1-en-1-yl)benzamido)-3-phenylpropanoic acid], in test [2] (setting [5]), the EC50 is 0.00604 nM. In addition, in test [2] (setting [6]), the Emax is 73.9%.

For the compound `CN(C)C(=O)CCC/C=C\c1cccc(C(=O)N[C@@H](Cc2ccccc2)C(=O)O)c1` [[17], (S,Z)-2-(3-(6-(dimethylamino)-6-oxohex-1-en-1-yl)benzamido)-3-phenylpropanoic acid], the EC50 in test [2] (setting [5]) came out at 0.14 nM. Further, the Emax in test [2] (setting [6]) came out at 56.3%.

In the case of `CN(C)C(=O)CCC/C=C\c1cccc(C(=O)N[C@@H](CO)C(=O)O)c1` [[18], (S,Z)-2-(3-(6-(dimethylamino)-6-oxohex-1-en-1-yl)benzamido)-3-hydroxypropanoic acid], the EC50 in test [2] (setting [5]) was determined as 0.382 nM. In test [2] (setting [6]), the Emax amounted to 62.7%.

As for `COC(=O)[C@@H](C)NC(=O)c1cccc(C#CCCCC(=O)N2CCCC2)c1` [[20], (R)-methyl 2-(3-(6-oxo-6-(pyrrolidin-1-yl)hex-1-yn-1-yl)benzamido)propanoate], in test [2] (setting [5]), the EC50 came out at 0.466 nM. For the same compound, the Emax in test [2] (setting [6]) was 44.7%.

Consider `COC(=O)[C@@H](C)NC(=O)c1cccc(/C=C\CCCC(=O)N2CCCC2)c1` [[21], (R,Z)-methyl 2-(3-(6-oxo-6-(pyrrolidin-1-yl)hex-1-en-1-yl)benzamido)propanoate], for which, in test [2] (setting [5]), the EC50 worked out at 0.162 nM. For the same compound, in test [2] (setting [6]), the Emax is 58.3%.

Take `COC(=O)CNC(=O)c1cccc(C#CCCCC(=O)N(C)C)c1` [[22], methyl 2-(3-(6-(dimethylamino)-6-oxohex-1-yn-1-yl)benzamido)acetate]: the EC50 in test [2] (setting [5]) stood at 0.112 nM. In test [2] (setting [6]), the Emax worked out at 52.9%.

Regarding `COC(=O)CNC(=O)c1cccc(/C=C\CCCC(=O)N(C)C)c1` [[23], (Z)-methyl 2-(3-(6-(dimethylamino)-6-oxohex-1-en-1-yl)benzamido)acetate], the EC50 in test [2] (setting [5]) amounted to 0.0225 nM. In test [2] (setting [6]), the Emax stood at 59.2%.

For the compound `COC(=O)[C@H](CO)NC(=O)c1cccc(C#CCCCC(=O)N(C)C)c1` [[24], (S)-methyl 2-(3-(6-(dimethylamino)-6-oxohex-1-yn-1-yl)benzamido)-3-hydroxypropanoate], the EC50 in test [2] (setting [5]) worked out at 0.412 nM. For the same compound, the maximum response (Emax) in test [2] (setting [6]) stood at 51.5%.

As for `COC(=O)[C@H](CO)NC(=O)c1cccc(/C=C\CCCC(=O)N(C)C)c1` [[25], (S,Z)-methyl 2-(3-(6-(dimethylamino)-6-oxohex-1-en-1-yl)benzamido)-3-hydroxypropanoate], the EC50 in test [2] (setting [5]) turned out to be 0.359 nM. Further, the Emax in test [2] (setting [6]) was found to be 52.9%.

With `COC(=O)[C@H](Cc1ccccc1)NC(=O)c1cccc(/C=C\CCCC(=O)N(C)C)c1` [[27], (S,Z)-methyl 2-(3-(6-(dimethylamino)-6-oxohex-1-en-1-yl)benzamido)-3-phenylpropanoate], the EC50 in test [2] (setting [5]) stood at 0.0908 nM. The Emax in test [2] (setting [6]) was 55.3%.

For `COC(=O)[C@@H](CO)NC(=O)c1cccc(/C=C\CCCC(=O)N(C)C)c1` [[29], (R,Z)-methyl 2-(3-(6-(dimethylamino)-6-oxohex-1-en-1-yl)benzamido)-3-hydroxypropanoate], the EC50 in test [2] (setting [5]) turned out to be 0.0456 nM. Further, the Emax in test [2] (setting [6]) came out at 62%.

With `COC(=O)[C@@H](Cc1ccccc1)NC(=O)c1cccc(C#CCCCC(=O)N(C)C)c1` [[30], (R)-methyl 2-(3-(6-(dimethylamino)-6-oxohex-1-yn-1-yl)benzamido)-3-phenylpropanoate], the EC50 in test [2] (setting [5]) came to 0.0614 nM. Besides, the Emax in test [2] (setting [6]) is 46.3%.

`COC(=O)[C@@H](Cc1ccccc1)NC(=O)c1cccc(/C=C\CCCC(=O)N(C)C)c1` [[31], (R,Z)-methyl 2-(3-(6-(dimethylamino)-6-oxohex-1-en-1-yl)benzamido)-3-phenylpropanoate]: in test [2] (setting [5]), the EC50 came to 0.0122 nM. Also, the Emax in test [2] (setting [6]) worked out at 47%.

Take `COC(=O)[C@H](C)NC(=O)c1cccc(C#CCCCC(=O)N(C)C)c1` [[32], (S)-methyl 2-(3-(6-(dimethylamino)-6-oxohex-1-yn-1-yl)benzamido)propanoate]: the EC50 in test [2] (setting [5]) amounted to 0.0131 nM. Moreover, in test [2] (setting [6]), the Emax came out at 54.6%.
